Holding throughout (type): in vivo
The subject of one series is Echinochloa phyllopogon. The experiment in a line: Seedling stage sealing experiment for water-seeding. Conditions: 120 g a.i./ha, 15 days, fresh weight control rate. The text has this: (§1) The activity level criteria for plant damage (i.e., growth control rate) are as follows: • Level 9: completely dead; • Level 8: growth control rate greater than or equal to 90% and less than 100%; • Level 7: growth control rate greater than or equal to 80% and less than 90%; • Level 6: growth control rate greater than or equal to 70% and less than 80%; • Level 5: growth control rate greater than or equal to 50% and less than 70%; • Level 4: growth control rate greater than or equal to 30% and less than 50%; • Level 3: growth control rate greater than or equal to 20% and less than 30%; • Level 2: growth control rate greater than or equal to 10% and less than 20%; • Level 1: growth control rate less than 10%; • Level 0: no effect.
(§2) The above growth control rates are fresh weight control rates.
(§3) Echinochloa phyllopogon, Digitaria sanguinalis, Huaidao (rice cultivar), etc. were broadcasted on the surface of nutrition bowls filled with soil and fully covered by soil. The foregoing well-prepared nutrition bowls were then placed in a cultivation box with water filled to a suitable height to keep the soil in the nutrition bowls moist. A test compound of the present invention was individually dissolved with acetone, then diluted into solution of a certain concentration using a certain amount of water, and sprayed using a spray tower. The plants were placed on a greenhouse seedbed and cultured for 15 days, and the experimental results were then collected. The compound was applied at 120, 60, 30 and 15 g a.i./ha in triplicate, and the results were averaged.

The next series has as its system Echinochloa crusgalli. The description is as above. Conditions: 120 g a.i./ha, 15 days, fresh weight control rate.
Description: as §1, §2, §3

In the next series the test system is Huaidao (rice cultivar). The experiment in a line: Seedling stage sealing experiment for water-seeding (crop safety). Conditions: 120 g a.i./ha, 15 days, fresh weight control rate; for Huaidao (rice cultivar) plant damage level: seedling stage sealing; for Huaidao (rice cultivar) plant damage level (growth control rate): spray, seedling stage sealing for water-seeding.
Description: as §1, §2, §3

Where [1] appears, read: spray, seedling stage sealing for water-seeding.

For `CN1C[C@H](c2cc(Br)cc(C(F)(F)F)c2)[C@@H](C(=O)Nc2cnn(C)c2Cl)C1=O` [294′], the “Echinochloa phyllopogon activity level (growth control rate)” value (“Echinochloa phyllopogon activity level” for short) with Echinochloa phyllopogon (seedling stage sealing) is 7 (Level 7: growth control rate greater than or equal to 80% and less than 90%). Besides, in the series with Echinochloa crusgalli (seedling stage sealing), the “Echinochloa crusgalli activity level (growth control rate)” value (shortened to “Echinochloa crusgalli activity level”) is 9. The “Huaidao (rice cultivar) plant damage level” value with Huaidao (rice cultivar) is given as 0.

In the case of `CN1C[C@H](c2cc(F)cc(Cl)c2)[C@@H](C(=O)Nc2cnn(C)c2Cl)C1=O` [507′], the “Echinochloa phyllopogon activity level” value in the series with Echinochloa phyllopogon (setting [1]) stood at 9. In addition, the “Echinochloa crusgalli activity level” value in the series with Echinochloa crusgalli (setting [1]) came out at 9. In the series with Huaidao (rice cultivar), the “Huaidao (rice cultivar) plant damage level (growth control rate)” value (from here on “Huaidao … (growth control rate)”) was 0.

On to `Cc1cccc([C@H]2CN(C)C(=O)[C@@H]2C(=O)Nc2cnn(C)c2C)c1` [134′], for which the “Echinochloa phyllopogon activity level” value with Echinochloa phyllopogon (seedling stage sealing) is 7 (Level 7: growth control rate greater than or equal to 80% and less than 90%). In the series on Echinochloa crusgalli (seedling stage sealing), the “Echinochloa crusgalli activity level” value was 7 (Level 7: growth control rate greater than or equal to 80% and less than 90%). For the same compound, in the series on Huaidao (rice cultivar), the “Huaidao (rice cultivar) plant damage level” value amounted to 0.

For `Cc1cccc([C@H]2CN(C)C(=O)[C@@H]2C(=O)Nc2cnn(C)c2C#N)c1` [391′], in the series with Echinochloa phyllopogon (seedling stage sealing), the “Echinochloa phyllopogon activity level” value is 9. Besides, in the series on Echinochloa crusgalli (seedling stage sealing), the “Echinochloa crusgalli activity level” value was 9. In addition, in the series with Huaidao (rice cultivar), the “Huaidao (rice cultivar) plant damage level” value came out at 0.

Take `COc1cccc([C@H]2CN(C)C(=O)[C@@H]2C(=O)Nc2cnn(C(F)F)c2Cl)c1` [215′]: the “Echinochloa phyllopogon activity level” value in the series with Echinochloa phyllopogon (seedling stage sealing) is 8 (Level 8: growth control rate greater than or equal to 90% and less than 100%). Besides, the “Echinochloa crusgalli activity level” value in the series with Echinochloa crusgalli (seedling stage sealing) was 9. Besides, the “Huaidao (rice cultivar) plant damage level” value in the series on Huaidao (rice cultivar) was found to be 0.

As for `CCc1ccc([C@H]2CN(C)C(=O)[C@@H]2C(=O)Nc2cnn(C)c2Cl)s1` [338′], the “Echinochloa phyllopogon activity level” value in the series with Echinochloa phyllopogon (seedling stage sealing) is 6 (Level 6: growth control rate greater than or equal to 70% and less than 80%). Besides, the “Echinochloa crusgalli activity level” value in the series with Echinochloa crusgalli (seedling stage sealing) was 9. Further, the “Huaidao (rice cultivar) plant damage level” value with Huaidao (rice cultivar) was found to be 0.

For the compound `COc1c(C(F)(F)F)ccc([C@H]2CN(C)C(=O)[C@@H]2C(=O)Nc2cnn(C)c2Cl)c1F` [446′], in the series on Echinochloa phyllopogon (setting [1]), the “Echinochloa phyllopogon activity level” value stood at 9. Further, the “Echinochloa crusgalli activity level” value in the series on Echinochloa crusgalli (setting [1]) was 9. Moreover, the “Huaidao … (growth control rate)” value in the series on Huaidao (rice cultivar) is on record as 0.

For `Cc1cc([C@H]2CN(C)C(=O)[C@@H]2C(=O)Nc2cnn(C)c2Cl)cc(C)c1C` [447′], in the series on Echinochloa phyllopogon (setting [1]), the “Echinochloa phyllopogon activity level” value was found to be 9. For the same compound, the “Echinochloa crusgalli activity level” value in the series with Echinochloa crusgalli (setting [1]) was 9. Also, the “Huaidao … (growth control rate)” value in the series on Huaidao (rice cultivar) is 0.

Consider `Cc1ccc([C@H]2CN(C)C(=O)[C@@H]2C(=O)Nc2cnn(C(F)F)c2Cl)cc1C` [487′], for which, in the series on Echinochloa phyllopogon (setting [1]), the “Echinochloa phyllopogon activity level” value came to 9. Besides, the “Echinochloa crusgalli activity level” value in the series on Echinochloa crusgalli (setting [1]) is on record as 9. In addition, in the series on Huaidao (rice cultivar), the “Huaidao … (growth control rate)” value is 2 (Level 2: growth control rate greater than or equal to 10% and less than 20%).

In the case of `Cc1nn(C(F)F)c(Cl)c1NC(=O)[C@H]1C(=O)N(C)C[C@@H]1c1cccc(C(F)(F)F)c1` [209′], in the series on Echinochloa phyllopogon (seedling stage sealing), the “Echinochloa phyllopogon activity level” value is 6 (Level 6: growth control rate greater than or equal to 70% and less than 80%). In addition, in the series on Echinochloa crusgalli (seedling stage sealing), the “Echinochloa crusgalli activity level” value was 7 (Level 7: growth control rate greater than or equal to 80% and less than 90%). Also, in the series with Huaidao (rice cultivar), the “Huaidao (rice cultivar) plant damage level” value is 0.

In the case of `Cc1cc(C)cc([C@H]2CN(C)C(=O)[C@@H]2C(=O)Nc2cnn(C)c2C)c1` [272′], the “Echinochloa phyllopogon activity level” value with Echinochloa phyllopogon (seedling stage sealing) was 7 (Level 7: growth control rate greater than or equal to 80% and less than 90%). Besides, in the series on Echinochloa crusgalli (seedling stage sealing), the “Echinochloa crusgalli activity level” value is on record as 9. In addition, the “Huaidao (rice cultivar) plant damage level” value in the series with Huaidao (rice cultivar) came out at 0.

For `CN1C[C@H](c2cc(F)cc(C(F)(F)F)c2)[C@@H](C(=O)Nc2cnn(C)c2Cl)C1=O` [67′], the “Echinochloa phyllopogon activity level” value in the series on Echinochloa phyllopogon (seedling stage sealing) is 8 (Level 8: growth control rate greater than or equal to 90% and less than 100%). For the same compound, the “Echinochloa crusgalli activity level” value in the series with Echinochloa crusgalli (seedling stage sealing) stood at 9. Also, the “Huaidao (rice cultivar) plant damage level” value in the series on Huaidao (rice cultivar) was 1 (Level 1: growth control rate less than 10%).

As for `Cc1ccc([C@H]2CN(C)C(=O)[C@@H]2C(=O)Nc2cnn(C)c2Cl)cc1C` [314′], the “Echinochloa phyllopogon activity level” value in the series on Echinochloa phyllopogon (seedling stage sealing) is given as 9. In addition, the “Echinochloa crusgalli activity level” value with Echinochloa crusgalli (seedling stage sealing) is on record as 9. Besides, the “Huaidao (rice cultivar) plant damage level” value in the series with Huaidao (rice cultivar) is 0.

Regarding `C=Cc1c(NC(=O)[C@H]2C(=O)N(C)C[C@@H]2c2cccc(C)c2)cnn1C` [137′], the “Echinochloa phyllopogon activity level” value in the series with Echinochloa phyllopogon (seedling stage sealing) was 5 (Level 5: growth control rate greater than or equal to 50% and less than 70%). Further, the “Echinochloa crusgalli activity level” value in the series on Echinochloa crusgalli (seedling stage sealing) is 6 (Level 6: growth control rate greater than or equal to 70% and less than 80%). For the same compound, in the series on Huaidao (rice cultivar), the “Huaidao (rice cultivar) plant damage level” value stood at 0.

For the compound `CN1C[C@H](c2cccc(C(F)(F)F)c2)[C@@H](C(=O)Nc2cnn(C)c2F)C1=O` [119′], in the series on Echinochloa phyllopogon (seedling stage sealing), the “Echinochloa phyllopogon activity level” value is recorded as 9. The “Echinochloa crusgalli activity level” value in the series on Echinochloa crusgalli (seedling stage sealing) turned out to be 9. In addition, in the series on Huaidao (rice cultivar), the “Huaidao (rice cultivar) plant damage level” value came to 0.

As for `CN1C[C@H](c2cc(F)cc(F)c2)[C@@H](C(=O)Nc2cnn(C)c2C(F)(F)F)C1=O` [489′], the “Echinochloa phyllopogon activity level” value in the series with Echinochloa phyllopogon (setting [1]) was found to be 9. In the series on Echinochloa crusgalli (setting [1]), the “Echinochloa crusgalli activity level” value amounted to 9. For the same compound, the “Huaidao … (growth control rate)” value in the series with Huaidao (rice cultivar) was 0.

For `Cc1cc(C)cc([C@H]2CN(C)C(=O)[C@@H]2C(=O)Nc2cnn(C)c2CO)c1` [502′], in the series on Echinochloa phyllopogon (setting [1]), the “Echinochloa phyllopogon activity level” value was 7 (Level 7: growth control rate greater than or equal to 80% and less than 90%). Moreover, the “Echinochloa crusgalli activity level” value in the series with Echinochloa crusgalli (setting [1]) is 9. Further, the “Huaidao … (growth control rate)” value in the series on Huaidao (rice cultivar) is reported as 0.

On to `CN1C[C@H](c2cccc(C(F)(F)F)c2)[C@@H](C(=O)Nc2cnn(C)c2S(C)(=O)=O)C1=O` [480′], for which, in the series with Echinochloa phyllopogon (setting [1]), the “Echinochloa phyllopogon activity level” value amounted to 9. In addition, the “Echinochloa crusgalli activity level” value in the series with Echinochloa crusgalli (setting [1]) came out at 9. Moreover, the “Huaidao … (growth control rate)” value in the series with Huaidao (rice cultivar) is listed as 1 (Level 1: growth control rate less than 10%).

Regarding `Cc1cc(C)cc([C@H]2CN(C)C(=O)[C@@H]2C(=O)Nc2cnn(C(C)C)c2Cl)c1` [419′], in the series with Echinochloa phyllopogon (seedling stage sealing), the “Echinochloa phyllopogon activity level” value is listed as 9. Also, in the series on Echinochloa crusgalli (seedling stage sealing), the “Echinochloa crusgalli activity level” value is reported as 9. Besides, the “Huaidao (rice cultivar) plant damage level” value with Huaidao (rice cultivar) was 0.

For `Cc1cc(C)cc([C@H]2CN(C)C(=O)[C@@H]2C(=O)Nc2cnn(C)c2CF)c1` [495′], in the series with Echinochloa phyllopogon (setting [1]), the “Echinochloa phyllopogon activity level” value is 7 (Level 7: growth control rate greater than or equal to 80% and less than 90%). The “Echinochloa crusgalli activity level” value in the series on Echinochloa crusgalli (setting [1]) was 9. In addition, the “Huaidao … (growth control rate)” value with Huaidao (rice cultivar) came to 0.

As to `Cc1cc(F)cc([C@H]2CN(C)C(=O)[C@@H]2C(=O)Nc2cnn(C)c2Cl)c1` [264′], the “Echinochloa phyllopogon activity level” value with Echinochloa phyllopogon (seedling stage sealing) was 9. Also, the “Echinochloa crusgalli activity level” value in the series on Echinochloa crusgalli (seedling stage sealing) was 9. The “Huaidao (rice cultivar) plant damage level” value in the series on Huaidao (rice cultivar) is given as 0.

Regarding `COCn1ncc(NC(=O)[C@H]2C(=O)N(C)C[C@@H]2c2cc(C)cc(C)c2)c1Cl` [422′], the “Echinochloa phyllopogon activity level” value with Echinochloa phyllopogon (seedling stage sealing) amounted to 9. Moreover, the “Echinochloa crusgalli activity level” value in the series on Echinochloa crusgalli (seedling stage sealing) was found to be 9. In addition, the “Huaidao (rice cultivar) plant damage level” value in the series on Huaidao (rice cultivar) was 1 (Level 1: growth control rate less than 10%).

On to `C=Cc1c(NC(=O)[C@H]2C(=O)N(C)C[C@@H]2c2cc(C)cc(C)c2)cnn1C(F)F` [496′], for which, in the series on Echinochloa phyllopogon (setting [1]), the “Echinochloa phyllopogon activity level” value is 9. For the same compound, the “Echinochloa crusgalli activity level” value with Echinochloa crusgalli (setting [1]) was determined as 9. In the series with Huaidao (rice cultivar), the “Huaidao … (growth control rate)” value is reported as 0.

The record behind these values is US20260223850A1, “SUBSTITUTED PYRROLIDONE COMPOUND, PREPARATION METHOD THEREFOR, COMPOSITION AND APPLICATION THEREOF” (QINGDAO KINGAGROOT CHEMICAL COMPOUND CO., LTD., priority 2023, published 2026).
